Among the data in ChEMBL document CHEMBL3046482, “Facile synthesis of furoquinoline and effects on radical-induced oxidation of DNA” (Med Chem Res, 2013) are Activity values, retold here.

SMILES strings stand for the structures. The source made the active and inactive calls. The calls are words filed in the database; no cut-off is given here.

What all share (assay type): functional
Assay [1] is described as follows: Antioxidant activity assessed as decrease in hydroxyl radical-induced oxidation of DNA measured TBARS production at 400 uM after 30 min by spectrophotometric analysis relative to control. Also on record: scale not given: the % may be the effect or the level left.
A short description of assay [2]: Antioxidant activity assessed as decrease in Cu2+/GSH-induced oxidation of DNA measured TBARS production at 400 uM after 90 min by spectrophotometric analysis relative to control. Also on record: scale not given: the % may be the effect or the level left.
Assay [3] is described as follows: Antioxidant activity assessed as decrease in AAPH-induced oxidation of DNA measured TBARS production at 400 uM after 15 min by spectrophotometric analysis.
A short description of assay [4]: Antioxidant activity assessed as decrease in AAPH-induced oxidation of DNA measured TBARS production at 100 to 400 uM after 15 min by spectrophotometric analysis.

Turning to `Cc1c2c(nc3c(O)cccc13)OCC2`, the values for the Activity in assay [1] and in assay [2] were 90.8% and 92.2%, respectively.
Turning to `Cc1c2c(nc3ccccc13)OCC2`, the result in assay [3] was inactive. The Activity was 95.1% in assay [1] and 96.6% in assay [2].
With `Cc1c2c(nc3ccc(O)cc13)OCC2`, the Activity in assay [1] amounted to 88.4%; in assay [2], 92.9%.
Consider `Cc1c2c(nc3cc(O)ccc13)OCC2`, for which the result in assay [4] was Active. Further, the Activity in assay [1] came out at 95.1%; in assay [2] it was 93.5%.
